# Experimental data published in patent publication US5643601A, “Phospholipid-and fluorocarbon-containing cosmetic” (Lancaster Group AG, priority 1992, dated 1997).
# Like-named read-outs stand apart in the source and are kept apart here.
# Legend:
# [1] = O2 solubility of fluorocarbons (Table 1); assay type: physicochemical
# Text: (§2) Some selected fluorocarbons and their O2 solubility, their vapour pressure and their critical solubility temperature are shown in Table 1.
# [2] = Critical solubility temperature (CST) of fluorocarbons in n-hexane
# Text: (§1) The fluorocarbons can be selected for O2 solubility, partial vapour pressure and lipid solubility according to the specific intended application. The critical solubility temperature of the fluorocarbons (CST) in n-hexane correlates with their solubility in lipids, e.g. cell membranes, and is thus a measure of the rate of release through the skin. […] It is thus possible by mixing various fluorocarbons to set defined CST values which are often not realisable by means of individual compounds.
# Starting from these values, the desired characteristics for the penetration of the skin with the aid of a cosmetic composition can be selected for mixtures of fluorocarbons.
# [3] = Vapour pressure of fluorocarbons (Table 1); assay type: physicochemical
# Text: as §2
# [4] = test system: skin; assay: Release of fluorocarbons through the skin
# Text: as §1
# [5] = test system: skin; settings: in words; cited from earlier work
SMILES,O2 solubility [1],CST (critical solubility temperature) ([2]; in n-hexane) [°C],Vapour Pressure P37° C. ([3]; 37° C.) [mm Hg],rate of release through the skin / half-life of release [4],CST (critical solubility temperature) [2] [°C],skin irritation / side effects [5],"rate of release through the skin / half-life of release ([4]; in words, correlated with CST)",Vapour Pressure P37° C. [3] [mm Hg]
FC(F)(F)C1(F)C(F)(F)C(F)(F)C(F)(F)C(F)(F)C1(F)F [F-methylcyclohexane],57 ml of O2 /100 ml of Fc,8.2,180,–,–,–,–,–
FC(F)(F)C(F)(F)C(F)(F)C(F)(F)C1(F)OC(F)(F)C(F)(F)C1(F)F (stereo not drawn) [Perfluorobutyl-tetrahydrofuran],52 ml of O2 /100 ml of Fc,29,51,–,–,–,–,–
FC(F)(F)C(F)(F)C(F)(F)C(F)(F)C(F)(F)C(F)(F)OC(F)(F)C(F)(F)C(F)(F)C(F)(F)C(F)(F)C(F)(F)F [F-dihexyl ether],45 ml of O2 /100 ml of Fc,59,2,–,–,–,–,–
FC1(F)C(F)(F)C(F)(F)C2(F)C(F)(F)C(F)(F)C(F)(F)C(F)(F)C2(F)C1(F)F (stereo not drawn) [Perfluorodecalin],40 ml of O2 /100 ml of Fc,–,12.5,released relatively rapidly,22,–,–,–
FC(F)(F)C(F)(F)C(F)(F)N(C(F)(F)C(F)(F)C(F)(F)F)C(F)(F)C(F)(F)C(F)(F)F [F-tripropylamine],45 ml of O2 /100 ml of Fc,–,18.5,–,43,–,–,–
FC(F)(F)C(F)(F)C(F)(F)C(F)(F)C=CC(F)(F)C(F)(F)C(F)(F)C(F)(F)F [Bis-F(butyl)ethene],50 ml of O2 /100 ml of Fc,22.5,12.6,–,–,–,–,–
OO [hydrogen peroxide],–,–,–,–,–,considerable side effects such as the skin irritations,–,–
FC1(F)OC(F)(F)C(F)(F)N(C(F)(F)C2(F)C(F)(F)C(F)(F)C(F)(F)C(F)(F)C2(F)F)C1(F)F [F-cyclohexylmethyl-morpholine],42 ml of O2 /100 ml of Fc,38.5,4,–,–,–,–,–
FC(F)(F)C(F)(F)C(F)(F)C(F)(F)N(C(F)(F)C(F)(F)C(F)(F)C(F)(F)F)C(F)(F)C(F)(F)C(F)(F)C(F)(F)F [F-tributylamine],40 ml of O2 /100 ml of Fc,59,1,–,–,–,high half-life of release,–
FC(F)(F)C(F)(F)C(F)(F)C(F)(F)C(F)(F)C(F)(F)C(F)(F)C(F)(F)Br [Perfluorooctyl bromide],50 ml of O2 /100 ml of Fc,–,14,released relatively rapidly,-24.5,–,–,–
FC(F)(F)C(F)(F)C(F)(F)C(F)(F)C(F)(F)C(F)(F)F [F-hexane],58 ml of O2 /100 ml of Fc,–,–,–,–,–,–,414
